According to PubChem BioAssay (NCI):
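All cell lines were grown in 96-well plates and treated with compound for 48 hours. GI50: concentration for 50% inhibition of growth. The concentration for full growth arrest is given as TGI.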

Columns and labels:
Assay in all cases: NCI anticancer screen, dose series, 48 h
SR leukemia = system: SR leukemia
UACC-62 melanoma = system: UACC-62 melanoma
BT-549 breast = system: BT-549 breast
SNB-75 CNS = system: SNB-75 CNS
T-47D breast = system: T-47D breast
COLO 205 colon = system: COLO 205 colon
NCI/ADR-RES ovarian = system: NCI/ADR-RES ovarian
NCI-H226 lung = system: NCI-H226 lung
786-0 renal = system: 786-0 renal
DU-145 prostate = system: DU-145 prostate
U251 CNS = system: U251 CNS
HCT-116 colon = system: HCT-116 colon
MDA-MB-435 = system: MDA-MB-435
OVCAR-8 ovarian = system: OVCAR-8 ovarian
RPMI-8226 leukemia = system: RPMI-8226 leukemia
TK-10 renal = system: TK-10 renal
MOLT-4 leukemia = system: MOLT-4 leukemia
OVCAR-4 ovarian = system: OVCAR-4 ovarian
SF-539 CNS = system: SF-539 CNS
PC-3 prostate = system: PC-3 prostate
RXF 393 renal = system: RXF 393 renal
MALME-3M melanoma = system: MALME-3M melanoma
HT29 colon = system: HT29 colon
SF-295 CNS = system: SF-295 CNS
HCC-2998 colon = system: HCC-2998 colon
NCI-H460 lung = system: NCI-H460 lung
HOP-62 NSCLC = system: HOP-62 NSCLC
NCI-H23 lung = system: NCI-H23 lung
UO-31 renal = system: UO-31 renal
NCI-H522 lung = system: NCI-H522 lung
SNB-19 CNS = system: SNB-19 CNS
HL-60(TB) leukemia = system: HL-60(TB) leukemia
CCRF-CEM leukemia = system: CCRF-CEM leukemia
CAKI-1 renal = system: CAKI-1 renal
SK-OV-3 ovarian = system: SK-OV-3 ovarian
SN12C renal = system: SN12C renal
KM12 colon = system: KM12 colon
LOX IMVI melanoma = system: LOX IMVI melanoma
OVCAR-5 ovarian = system: OVCAR-5 ovarian
MCF7 breast = system: MCF7 breast
A498 renal = system: A498 renal
SK-MEL-5 melanoma = system: SK-MEL-5 melanoma
MDA-MB-231 breast = system: MDA-MB-231 breast
K-562 leukemia = system: K-562 leukemia
EKVX NSCLC = system: EKVX NSCLC
SK-MEL-28 melanoma = system: SK-MEL-28 melanoma
HCT-15 colon = system: HCT-15 colon
ACHN renal = system: ACHN renal
OVCAR-3 ovarian = system: OVCAR-3 ovarian
IGROV1 ovarian = system: IGROV1 ovarian
HOP-92 NSCLC = system: HOP-92 NSCLC
UACC-257 melanoma = system: UACC-257 melanoma
SK-MEL-2 melanoma = system: SK-MEL-2 melanoma
SW-620 colon = system: SW-620 colon
SF-268 CNS = system: SF-268 CNS
A549 NSCLC = system: A549 NSCLC

With COC(=O)c1cc2c3cc(Cl)ccc3[nH]c2c2ncccc12 the GI50 (SR leukemia) was over 100 µM, the TGI (SR leukemia) was over 100 µM and the GI50 (UACC-62 melanoma) was over 100 µM. The TGI (UACC-62 melanoma) was over 100 µM, the GI50 (BT-549 breast) was over 100 µM and the TGI (BT-549 breast) was over 100 µM. For the same compound, the GI50 (SNB-75 CNS) was over 100 µM, the TGI (SNB-75 CNS) was over 100 µM and the GI50 (T-47D breast) was 24.7 µM. The TGI (T-47D breast) was over 100 µM, the GI50 (COLO 205 colon) was over 100 µM and the TGI (COLO 205 colon) was over 100 µM. For the same compound, the GI50 (NCI/ADR-RES ovarian) was over 100 µM, the TGI (NCI/ADR-RES ovarian) was over 100 µM and the GI50 (NCI-H226 lung) was over 100 µM. It also gave a TGI (NCI-H226 lung) of over 100 µM, a GI50 (786-0 renal) of over 100 µM and a TGI (786-0 renal) of over 100 µM. It also gave a GI50 (DU-145 prostate) of over 100 µM, a TGI (DU-145 prostate) of over 100 µM and a GI50 (U251 CNS) of over 100 µM. For the same compound, the TGI (U251 CNS) was over 100 µM, the GI50 (HCT-116 colon) was over 100 µM and the TGI (HCT-116 colon) was over 100 µM. It also gave a GI50 (MDA-MB-435) of over 100 µM, a TGI (MDA-MB-435) of over 100 µM and a GI50 (OVCAR-8 ovarian) of over 100 µM. For the same compound, the TGI (OVCAR-8 ovarian) was over 100 µM, the GI50 (RPMI-8226 leukemia) was over 100 µM and the TGI (RPMI-8226 leukemia) was over 100 µM. For the same compound, the GI50 (TK-10 renal) was over 100 µM, the TGI (TK-10 renal) was over 100 µM and the GI50 (MOLT-4 leukemia) was over 100 µM. For the same compound, the TGI (MOLT-4 leukemia) was over 100 µM, the GI50 (OVCAR-4 ovarian) was over 100 µM and the TGI (OVCAR-4 ovarian) was over 100 µM. For the same compound, the GI50 (SF-539 CNS) was 51.8 µM, the TGI (SF-539 CNS) was over 100 µM and the GI50 (PC-3 prostate) was over 100 µM. It also gave a TGI (PC-3 prostate) of over 100 µM, a GI50 (RXF 393 renal) of over 100 µM and a TGI (RXF 393 renal) of over 100 µM. It also gave a GI50 (MALME-3M melanoma) of over 100 µM, a TGI (MALME-3M melanoma) of over 100 µM and a GI50 (HT29 colon) of over 100 µM. It also gave a TGI (HT29 colon) of over 100 µM, a GI50 (SF-295 CNS) of over 100 µM and a TGI (SF-295 CNS) of over 100 µM. It also gave a GI50 (HCC-2998 colon) of over 100 µM, a TGI (HCC-2998 colon) of over 100 µM and a GI50 (NCI-H460 lung) of over 100 µM. The TGI (NCI-H460 lung) was over 100 µM, the GI50 (HOP-62 NSCLC) was over 100 µM and the TGI (HOP-62 NSCLC) was over 100 µM. The GI50 (NCI-H23 lung) was over 100 µM, the TGI (NCI-H23 lung) was over 100 µM and the GI50 (UO-31 renal) was over 100 µM. For the same compound, the TGI (UO-31 renal) was over 100 µM, the GI50 (NCI-H522 lung) was over 100 µM and the TGI (NCI-H522 lung) was over 100 µM. For the same compound, the GI50 (SNB-19 CNS) was over 100 µM, the TGI (SNB-19 CNS) was over 100 µM and the GI50 (HL-60(TB) leukemia) was over 100 µM. For the same compound, the TGI (HL-60(TB) leukemia) was over 100 µM, the GI50 (CCRF-CEM leukemia) was over 100 µM and the TGI (CCRF-CEM leukemia) was over 100 µM. The GI50 (CAKI-1 renal) was over 100 µM, the TGI (CAKI-1 renal) was over 100 µM and the GI50 (SK-OV-3 ovarian) was over 100 µM. For the same compound, the TGI (SK-OV-3 ovarian) was over 100 µM, the GI50 (SN12C renal) was over 100 µM and the TGI (SN12C renal) was over 100 µM. The GI50 (KM12 colon) was over 100 µM, the TGI (KM12 colon) was over 100 µM and the GI50 (LOX IMVI melanoma) was over 100 µM. For the same compound, the TGI (LOX IMVI melanoma) was over 100 µM, the GI50 (OVCAR-5 ovarian) was over 100 µM and the TGI (OVCAR-5 ovarian) was over 100 µM. The GI50 (MCF7 breast) was over 100 µM, the TGI (MCF7 breast) was over 100 µM and the GI50 (A498 renal) was over 100 µM. For the same compound, the TGI (A498 renal) was over 100 µM, the GI50 (SK-MEL-5 melanoma) was over 100 µM and the TGI (SK-MEL-5 melanoma) was over 100 µM. It also gave a GI50 (MDA-MB-231 breast) of over 100 µM, a TGI (MDA-MB-231 breast) of over 100 µM and a GI50 (K-562 leukemia) of over 100 µM. For the same compound, the TGI (K-562 leukemia) was over 100 µM, the GI50 (EKVX NSCLC) was over 100 µM and the TGI (EKVX NSCLC) was over 100 µM. The GI50 (SK-MEL-28 melanoma) was over 100 µM, the TGI (SK-MEL-28 melanoma) was over 100 µM and the GI50 (HCT-15 colon) was over 100 µM. It also gave a TGI (HCT-15 colon) of over 100 µM, a GI50 (ACHN renal) of over 100 µM and a TGI (ACHN renal) of over 100 µM. The GI50 (OVCAR-3 ovarian) was over 100 µM, the TGI (OVCAR-3 ovarian) was over 100 µM and the GI50 (IGROV1 ovarian) was 77.4 µM. It also gave a TGI (IGROV1 ovarian) of over 100 µM, a GI50 (HOP-92 NSCLC) of over 100 µM and a TGI (HOP-92 NSCLC) of over 100 µM. For the same compound, the GI50 (UACC-257 melanoma) was over 100 µM, the TGI (UACC-257 melanoma) was over 100 µM and the GI50 (SK-MEL-2 melanoma) was over 100 µM. It also gave a TGI (SK-MEL-2 melanoma) of over 100 µM, a GI50 (SW-620 colon) of over 100 µM and a TGI (SW-620 colon) of over 100 µM. For the same compound, the GI50 (SF-268 CNS) was over 100 µM, the TGI (SF-268 CNS) was over 100 µM and the GI50 (A549 NSCLC) was over 100 µM. The TGI (A549 NSCLC) was over 100 µM.
